Assays:
Format in all cases: cell-based
[1] = system: A549/cis (Over-expressing ABCG2); assay: Drug sensitization test (MTT); details: 72 hours
Text: (§1) MCF7 Flavo-resistant strain and A549 cisplatin-resistant strain (A549/cis) were used as the experimental cell line with high ABCG2 expression, and the corresponding non-resistant cells MCF7 and A549 with relatively low ABCG2 expression were used as control cell lines in the drug sensitization test. FTC is a specific inhibitor of ABCG2, so the cell group added with FTC was used as a positive control group; the cell group added with a corresponding volume of DMEM high glucose medium or RPMI-1640 medium was used as a negative control group. […] The ABCG2-PKU1, ABCG2-PKU1-1 and ABCG2-PKU2 antibodies prepared in Example 3, as well as mitoxantrone (MTX) and FTC were added. After 72 hours, MTT test was carried out and the absorbance was measured. […] The ratio of the IC50 of the drug-resistant cells to the IC50 of the original cells was calculated, which was the relative drug resistance. Breast cancer cell MCF7 and Flavopiridol (Flavo)-resistant strain MCF7/Flavo cells, lung cancer A549 cells and cisplatin (Cis)-resistant strain A549/Cis cells were divided into 11 groups in the growth inhibition analysis: […]

[2] = system: MCF 7/Flavo (Over-expressing ABCG2); assay: Drug sensitization test (MTT); details: 72 hours
Text: as §1

MCF 7 = assay: Drug sensitization test (MTT); details: 72 hours
Text: as §1

A549 = assay: Drug sensitization test (MTT); details: 72 hours
Text: as §1

[3] = system: MCF7, MCF7/ADM, MCF7/FLV1000, MCF7/Mitoxantrone, A549, A549/cis, L02 and L02/Oct4 cells; assay: Tumor cell growth inhibition analysis; details: agent alone; d1-d6 (FIG. 8)
Procedure: (1) Tumor cell MCF7 and the drug-resistant strains MCF7/ADM, MCF7/FLV1000, MCF7/Mitoxantrone obtained and identified in Example 4, A549 and A549/cis, L02 and L02/Oct4 cells were seeded in a 96-well plate, 3000 cells/90 μl/well, 6 replicate wells, incubated at 37° C. overnight.
(2) According to the following Tables 6-1 and 6-2, mitoxantrone, commercial ABCG2 antibody (BXP-21) and the three ABCG2 antibodies ABCG2-PKU1, ABCG2-PKU1-1 and ABCG2-PKU2 obtained in Example 3 were added to the plate. The plate was then incubated in a, 5% CO2 incubator at 37° C. 10 μl of DMSO was added to the well at d1, d2, d3, d4, d5, and d6, and the absorbance was measured using an ELISA instrument after 2 hours.
(3) Inhibitory rate calculation: OD value of drug-treatment—blank OD value/OD value without drug-treatment—blank OD value, a growth inhibition curve was plotted.

Compound	Relative Drug Resistance ([1]; mitoxantrone + agent at 5 μM)	Relative Drug Resistance ([2]; mitoxantrone + agent at 5 μM)	Relative Drug Resistance (MCF 7; mitoxantrone + agent at 5 μM)	Relative Drug Resistance (A549; mitoxantrone + agent at 5 μM)	Relative Drug Resistance ([1]; mitoxantrone alone)	Relative Drug Resistance ([2]; mitoxantrone alone)	Relative Drug Resistance (MCF 7; mitoxantrone alone)	Relative Drug Resistance (A549; mitoxantrone alone)	inhibition of tumor cell growth [3]
COc1ccc2c3c([nH]c2c1)[C@H](C=C(C)C)N1C(=O)[C@@H]2CCCN2C(=O)[C@@H]1C3 [FTC]	0.92	0.77	1.03	1.13	–	–	–	–	–
O=C1c2c(O)ccc(O)c2C(=O)c2c(NCCNCCO)ccc(NCCNCCO)c21 [Mitoxantrone, mitoxantrone]	–	–	–	–	1.00	1.00	1.00	1.00	could inhibit the growth
